Measurements as given in patent US8088820B2, “Substituted tetracycline compounds for the treatment of malaria” (Paratek Pharmaceuticals, Inc., priority 2001, dated 2012).

Assay: in vitro
Details: African green monkey (COS-1); Chinese hamster (CHO)

IC50 at 24 h [µg/mL]	SMILES
> 25	C[C@H]1c2cccc(O)c2C(=O)C2=C(O)[C@]3(O)C(=O)C(C(N)=O)=C(O)[C@@H](N(C)C)[C@@H]3[C@@H](O)[C@@H]21 [doxycycline]
> 25	CN(C)c1ccc(O)c2c1C[C@H]1C[C@H]3[C@H](N(C)C)C(O)=C(C(N)=O)C(=O)[C@@]3(O)C(O)=C1C2=O [minocycline]
